{"source": "ChEMBL document CHEMBL5352446", "about": "“Synthesis and biological evaluation of a novel c-Myc inhibitor against colorectal cancer via blocking c-Myc/Max heterodimerization and disturbing its DNA binding” (Eur J Med Chem, 2022)", "key": {"HT-29 [1]": {"tested_on": "HT-29", "assay": "Downregulation of c-Myc expression in human […] cells incubated for 24 hrs by Western blot analysis", "format": "functional, cell-based", "details": "dose 2.5-10 µM"}, "Homo sapiens": {"organism": "Homo sapiens", "assay": "Inhibition of human Myc (353 to 439 residues)/Max(S) (151 residues) expressed in Escherichia coli BL21(DE3) binding to biotinylated double-stranded DNA oligonucleotide 5'-CACCCGGTCACTGGCCTACAC-3' (unknown origin) preincubated for 90 mins followed by oligonucleotide addition for 25 mins by EMSA", "details": "time 115.0 min"}, "HT-29 [2]": {"tested_on": "HT-29", "assay": "Induction of apoptosis in human HT-29 cells assessed as late apoptotic cells at 10 uM incubated for 24 hrs by FITC Annexin-V and PI staining based flow cytometry analysis (reference value: 0.78%)", "format": "functional"}, "HT-29 [3]": {"tested_on": "HT-29", "assay": "Inhibition of cell migration in human HT-29 cells incubated for 48 hrs by wound healing analysis", "format": "functional, cell-based"}, "HT-29 [4]": {"tested_on": "HT-29", "assay": "Induction of apoptosis in human HT-29 cells assessed as early apoptotic cells at 10 uM incubated for 24 hrs by FITC Annexin-V and PI staining based flow cytometry analysis (reference value: 2.15%)", "format": "functional"}, "HT-29 [5]": {"tested_on": "HT-29", "assay": "Induction of apoptosis in human HT-29 cells assessed as upregulation of cleaved caspase 3 expression incubated for 24 hrs by Western blot analysis", "format": "functional, cell-based", "details": "dose 2.5-10 µM"}, "HCT-116 [6]": {"tested_on": "HCT-116", "assay": "cells", "details": "Homo sapiens, HCT-116, 72 h", "description": "Antiproliferative activity against human HCT-116 cells incubated for 72 hrs by MTT assay"}, "HT-29 [7]": {"tested_on": "HT-29", "assay": "Induction of apoptosis in human HT-29 cells assessed as late apoptotic cells at 5 uM incubated for 24 hrs by FITC Annexin-V and PI staining based flow cytometry analysis (reference value: 0.78%)", "format": "functional"}, "HT-29 [8]": {"tested_on": "HT-29", "assay": "Induction of apoptosis in human HT-29 cells assessed as late apoptotic cells at 2.5 uM incubated for 24 hrs by FITC Annexin-V and PI staining based flow cytometry analysis (reference value: 0.78%)", "format": "functional"}, "HT-29 [9]": {"tested_on": "HT-29", "assay": "Induction of cell cycle arrest in human HT-29 cells assessed as accumulation of cells at G2 phase at 2.5 uM incubated for 24 hrs by propidium iodide staining based flow cytometry analysis (reference value: 16.33 %)", "format": "functional"}, "HT-29 [10]": {"tested_on": "HT-29", "assay": "Inhibition of colony formation in human HT-29 cells measured after 14 days by crystal violet staining based assay", "format": "functional, cell-based", "details": "dose 0.25-2 µM, time 14.0 day"}, "HT-29 [11]": {"tested_on": "HT-29", "assay": "Induction of apoptosis in human HT-29 cells assessed as necrotic cells at 2.5 uM incubated for 24 hrs by FITC Annexin-V and PI staining based flow cytometry analysis (reference value: 0.13%)", "format": "functional"}, "HT-29 [12]": {"tested_on": "HT-29", "assay": "cells", "details": "Homo sapiens, HT-29, 72 h", "description": "Antiproliferative activity against human HT-29 cells incubated for 72 hrs by MTT assay"}, "L02": {"tested_on": "L02", "assay": "Cytotoxicity against human L02 cells incubated for 72 hrs by MTT assay", "format": "toxicity, cell-based", "details": "l02, 72 h"}, "HT-29 [13]": {"tested_on": "HT-29", "assay": "Potency index, ratio of 5-Fu IC50 to test compound IC50 for antiproliferative activity against human HT-29 cells", "format": "functional"}, "HT-29 [14]": {"tested_on": "HT-29", "assay": "Induction of cell cycle arrest in human HT-29 cells assessed as accumulation of cells at G1 phase at 5 uM incubated for 24 hrs by propidium iodide staining based flow cytometry analysis (reference value: 65.37 %)", "format": "functional"}, "HT-29 [15]": {"tested_on": "HT-29", "assay": "Antitumor activity against human HT-29 cells xenografted in BALB/c mouse assessed as tumor growth inhibition at 40 mg/kg, ip administered daily for 3 weeks by caliper method", "format": "functional", "details": "HT-29, 504 h, read-out: TGI"}, "HT-29 [16]": {"tested_on": "HT-29", "assay": "Induction of apoptosis in human HT-29 cells assessed as necrotic cells at 10 uM incubated for 24 hrs by FITC Annexin-V and PI staining based flow cytometry analysis (reference value: 0.13%)", "format": "functional"}, "HT-29 [17]": {"tested_on": "HT-29", "assay": "Induction of apoptosis in human HT-29 cells assessed as early apoptotic cells at 0.625 uM incubated for 24 hrs by FITC Annexin-V and PI staining based flow cytometry analysis (reference value: 2.15%)", "format": "functional"}, "HT-29 [18]": {"tested_on": "HT-29", "assay": "Induction of apoptosis in human HT-29 cells assessed as upregulation of cleaved PARP expression incubated for 24 hrs by Western blot analysis", "format": "functional, cell-based", "details": "dose 2.5-10 µM"}, "HT-29 [19]": {"tested_on": "HT-29", "assay": "Induction of cell cycle arrest in human HT-29 cells assessed as accumulation of cells at G1 phase at 0.625 uM incubated for 24 hrs by propidium iodide staining based flow cytometry analysis (reference value: 65.37 %)", "format": "functional"}, "HT-29 [20]": {"tested_on": "HT-29", "assay": "Induction of apoptosis in human HT-29 cells assessed as viable cells at 0.625 uM incubated for 24 hrs by FITC Annexin-V and PI staining based flow cytometry analysis (reference value: 96.94%)", "format": "functional", "details": "read-out: Activity"}, "HT-29 [21]": {"tested_on": "HT-29", "assay": "Induction of cell cycle arrest in human HT-29 cells assessed as accumulation of cells at G2 phase at 0.625 uM incubated for 24 hrs by propidium iodide staining based flow cytometry analysis (reference value: 16.33 %)", "format": "functional"}, "HCT-116 [22]": {"tested_on": "HCT-116", "assay": "Downregulation of c-Myc expression in human HCT-116 cells at 10 uM incubated for 24 hrs by Western blot analysis", "format": "functional, cell-based"}, "HT-29 [23]": {"tested_on": "HT-29", "assay": "Induction of cell cycle arrest in human HT-29 cells assessed as accumulation of cells at G1 phase at 1.25 uM incubated for 24 hrs by propidium iodide staining based flow cytometry analysis (reference value: 65.37 %)", "format": "functional"}, "HCT-116 [24]": {"tested_on": "HCT-116", "assay": "Inhibition of cell migration in human HCT-116 cells incubated for 48 hrs by wound healing analysis", "format": "functional, cell-based"}, "HT-29 [25]": {"tested_on": "HT-29", "assay": "Induction of apoptosis in human HT-29 cells assessed as early apoptotic cells at 5 uM incubated for 24 hrs by FITC Annexin-V and PI staining based flow cytometry analysis (reference value: 2.15%)", "format": "functional"}, "HT-29 [26]": {"tested_on": "HT-29", "assay": "Induction of apoptosis in human HT-29 cells assessed as upregulation of cleaved caspase 9 expression incubated for 24 hrs by Western blot analysis", "format": "functional, cell-based", "details": "dose 2.5-10 µM"}, "HT-29 [27]": {"tested_on": "HT-29", "assay": "Induction of apoptosis in human HT-29 cells assessed as early apoptotic cells at 1.25 uM incubated for 24 hrs by FITC Annexin-V and PI staining based flow cytometry analysis (reference value: 2.15%)", "format": "functional"}, "HCT-116 [28]": {"tested_on": "HCT-116", "assay": "Downregulation of c-Myc expression in human HCT-116 cells incubated for 24 hrs by Western blot analysis", "format": "functional, cell-based", "details": "dose 2.5-10 µM"}}, "note": "pIC50: −log10 of the molar value. The source made the active and inactive calls. The calls are words filed in the database; no cut-off is given here."}
{"compound": "COc1cc(Oc2ccc(Nc3ccc(CCCO)cc3)cc2)cc(OC)c1CNCCc1ccc(C(F)(F)F)cc1", "values": [{"measurement": "Activity", "setting": "HT-29 [1]", "value": "Dose-Dependent Effect"}, {"measurement": "inhibition", "setting": "Homo sapiens", "value": "Dose-Dependent Effect"}, {"measurement": "Activity", "setting": "HT-29 [2]", "value": 13.52, "unit": "%"}, {"measurement": "inhibition", "setting": "HT-29 [3]", "value": "Active"}, {"measurement": "Activity", "setting": "HT-29 [4]", "value": 29.06, "unit": "%"}, {"measurement": "Activity", "setting": "HT-29 [5]", "value": "Dose-Dependent Effect"}, {"measurement": "pIC50", "setting": "HCT-116 [6]", "value": 6.19}, {"measurement": "Activity", "setting": "HT-29 [7]", "value": 7.67, "unit": "%"}, {"measurement": "Activity", "setting": "HT-29 [8]", "value": 7.03, "unit": "%"}, {"measurement": "Activity", "setting": "HT-29 [9]", "value": 8.23, "unit": "%"}, {"measurement": "inhibition", "setting": "HT-29 [10]", "value": "Dose-Dependent Effect"}, {"measurement": "Activity", "setting": "HT-29 [11]", "value": 3.95, "unit": "%"}, {"measurement": "pIC50", "setting": "HT-29 [12]", "value": 6.54}, {"measurement": "Activity", "setting": "L02", "value": "Non-Toxic"}, {"measurement": "Ratio IC50", "setting": "HT-29 [13]", "value": 32}, {"measurement": "Activity", "setting": "HT-29 [14]", "value": 76.86, "unit": "%"}, {"measurement": "inhibition in vivo at 40 mg/kg", "setting": "HT-29 [15]", "value": 65.5, "unit": "%"}, {"measurement": "Activity", "setting": "HT-29 [16]", "value": 1.87, "unit": "%"}, {"measurement": "Activity", "setting": "HT-29 [17]", "value": 5.9, "unit": "%"}, {"measurement": "Activity", "setting": "HT-29 [18]", "value": "Dose-Dependent Effect"}, {"measurement": "Activity", "setting": "HT-29 [19]", "value": 71.78, "unit": "%"}, {"measurement": "viability at 0.625 µM", "setting": "HT-29 [20]", "value": 89.5, "unit": "%"}, {"measurement": "Activity", "setting": "HT-29 [21]", "value": 11.95, "unit": "%"}, {"measurement": "Activity", "setting": "HCT-116 [22]", "value": "Active"}, {"measurement": "Activity", "setting": "HT-29 [23]", "value": 74.95, "unit": "%"}, {"measurement": "inhibition", "setting": "HCT-116 [24]", "value": "Active"}, {"measurement": "Activity", "setting": "HT-29 [25]", "value": 22.05, "unit": "%"}, {"measurement": "Activity", "setting": "HT-29 [26]", "value": "Dose-Dependent Effect"}, {"measurement": "Activity", "setting": "HT-29 [27]", "value": 12.78, "unit": "%"}, {"measurement": "Activity", "setting": "HCT-116 [28]", "value": "Dose-Dependent Effect"}]}
